Assay results published in PMC3939009, “Thrombin inhibitory activity of some polyphenolic compounds” (Medicinal Chemistry Research, 2013).
Read-outs that look alike come from different tables or passages of the source. One block for each molecule: values may come before it.

Assays:
[1] = test system: human thrombin; assay: Thrombin-induced platelet aggregation (turbidimetric); assay type: cell-based
Procedure: Blood samples in 0.32 % sodium citrate from healthy volunteers without cardiovascular disorders were collected, untreated with antiplatelet drugs. […] Platelets were isolated from PRP using BSA–Sepharose 2B gel filtration method according to Walkowiak et al. ([2000]). […] In these preparations, to nine volumes of thrombin one volume of polyphenolic compounds was added (final thrombin concentration was 15.8 nM). All tested compounds were dissolved in 50 % DMSO to the initial concentration of 10 mM; other solutions of compounds were also prepared in 50 % DMSO (prepared in 50 mM TBS, pH 7.4). […] The platelet aggregation was measured by turbidimetric method (Saluk-Juszczak et al., [2007]) using dual-channel Chrono-log optical aggregometer (Chronolog, USA). […] Platelet suspensions were pre-warmed at 37 °C with stirring.

[2] = target: T1, human thrombin (Homo sapiens, UniProt P00734); assay: Thrombin-induced fibrinogen polymerization; assay type: biochemical; parameters: Thrombin, also known as an active plasma coagulation factor II; purchased Sigma-Aldrich Chemical Co. (St. Louis, MO, USA) T7009; details: thrombin preincubated with compound; for Effect on thrombin ability to induce fibrinogen polymerization: 10 min 37 °C; for Concentration causing total inhibition of thrombin activity (fibrin polymerization): Vmax of fibrinogen polymerization at 595 nm
Procedure: In these preparations, to nine volumes of thrombin one volume of polyphenolic compounds was added (final thrombin concentration was 15.8 nM). All tested compounds were dissolved in 50 % DMSO to the initial concentration of 10 mM; other solutions of compounds were also prepared in 50 % DMSO (prepared in 50 mM TBS, pH 7.4). […] Polymerization of fibrin was monitored at 595 nm using a 96-well microtiter plate reader. To each reaction well of the microtiter plate, 100 μl of fibrinogen (3 mg/ml) in 50 mM TBS and 5 mM CaCl2, pH 7.4, were added. […] The maximal velocity of the polymerization process (V max, Δm OD/min) for each absorbance curve was determined (Nowak et al., [2007]).

[3] = target: T1, human thrombin; assay: BIAcore (SPR) analysis of binding to immobilized thrombin; parameters: Thrombin, also known as an active plasma coagulation factor II; purchased Sigma-Aldrich Chemical Co. (St. Louis, MO, USA) T7009; details: for Response (RU): analyte 1,000 μM, thrombin immobilized on CM5 chip
Procedure: The biosensor assays were performed using the BIAcore 1000 biosensor system. All biosensor analyses were performed with a phosphate-buffered saline (PBS), pH 7.4, as a running buffer. […] The immobilization of thrombin on a biosensor carboxylmethyl dextran surface was performed according to the BIA applications Handbook (BIAcore, [1994]). The process of protein immobilization was performed on a sensor chip CM5 surface by the positively charged functional groups of protein amino acids. The immobilization process consisted of four steps: preconcentration, activation, ligand immobilization and deactivation of the residual NHS esters. […] The temperature during the whole experiment was also constant and was set to 25.0 °C. […] Each of these solutions (10 μl) was injected into an empty sensor chip channel. […] The amount of injected activation mixture was modified, to regulate the amount of immobilized ligand. […] The conditions of the latter experiments were established by numerous pre-tests. The assessed parameters included: the buffer flow rate, the volume of analyte injection, the concentration of analytes, types and concentration of regenerators. […] For each injection of analyte solution, the volume used was 100 μl. After injection of analyte was completed, the dissociation step occurred and the level of the interaction ligand-analyte was measured. During dissociation, the particles non-covalently bound to the ligand were washed out from the working channel. […] To do these calculations, the formulas presented below were used: the association rate […]]; the dissociation rate -d[AB]/dt=kd·[AB]; the equilibrium constants: KA=[AB]/[A]·[B]=ka/kd KD=[A]·[B]/[AB]=kd/ka.

[4] = target: T1, human thrombin; assay: Analysis of thrombin inhibition parameters (Lineweaver–Burk curves); assay type: biochemical; parameters: Thrombin, also known as an active plasma coagulation factor II; purchased Sigma-Aldrich Chemical Co. (St. Louis, MO, USA) T7009; details: for k cat: compound at IC50 concentration, k cat = V max/E 0, control 29.1; for Type of inhibition: from Lineweaver–Burk curves; for V max of chromogenic substrate hydrolysis by thrombin / K m of chromogenic substrate hydrolysis by thrombin: thrombin incubated with compound at IC50 concentration; for V max of chromogenic substrate hydrolysis by thrombin: control 30.7; for K m of chromogenic substrate hydrolysis by thrombin: control 158.7
Procedure: Absorbance was monitored every 12 s for 10 min in a 96-well microplate reader. The velocity of reaction was expressed as the increase in product (pNA) over time (∆ μmol/min) using a computer program Mikcroplate Manager® 8 and the extinction coefficient of p-nitroaniline. […] Then, the Lineweaver–Burk ([1934]) curves for thrombin in the presence and in the absence of polyphenol compounds were plotted. The Lineweaver–Burk equation, which is a transformation of the Michaelis–Menten model, looks as follows: 1/V=Km/Vmax·1/[S]+1/Vmax

[5] = target: T1, human thrombin; assay: Amidolytic activity of thrombin (hydrolysis of chromogenic substrate D-Phe-Pip-Arg-pNA); assay type: biochemical; parameters: Thrombin, also known as an active plasma coagulation factor II; purchased Sigma-Aldrich Chemical Co. (St. Louis, MO, USA) T7009; host or cells: purified from human plasma
Procedure: (§1) All tested compounds were dissolved in 50 % DMSO to the initial concentration of 10 mM; other solutions of compounds were also prepared in 50 % DMSO (prepared in 50 mM TBS, pH 7.4). The final concentration of DMSO in thrombin samples was 5 %. To prepare thrombin control samples, the same volume of solvent (50 % DMSO prepared in 50 mM TBS, pH 7.4) was added as in the case of the compound volume and warmed for 10 min to 37 °C.
To each reaction well, 40 μl of 3 mM chromogenic substrate was added. To initiate the chromogenic reaction, 280 μl of control thrombin (without tested compounds) or thrombin after preincubation with a polyphenolic compound to every reaction well in the same moment was added. The absorbance value was monitored every 12 s for 10 min. The maximal velocity of the reaction (V max, Δm OD/min) for each absorbance curve was determined. IC50 value (parameter) for every polyphenolic compound from inhibition curves was estimated.

[6] = target: T1, human thrombin; assay: SDS-PAGE analysis of thrombin-induced cross-linked fibrin formation; assay type: biochemical; parameters: Thrombin, also known as an active plasma coagulation factor II; purchased Sigma-Aldrich Chemical Co. (St. Louis, MO, USA) T7009; host or cells: purified from human plasma
Procedure: as §1, with “In these preparations, to nine volumes of thrombin one volume of polyphenolic compounds was added (final thrombin concentration was 15.8 nM). All” for “All”
The reactions incubated at 37 °C were stopped after 5, 15 and 30 min by adding 150 μl of lysis buffer (0.125 M Tris/HCl, 4 % SDS, 8 M urea, 10 % β-mercaptoethanol, pH 6.8). Samples were subjected to SDS-PAGE (polyacrylamide concentration—7.5 %) using Mini-Protean Electrophoresis Cell (Bio-Rad, Hercules, CA). Proteins were stained with Coomassie Brilliant Blue R250 (CBB).

[7] = at 375 μM substrate concentration, compounds 0.1–1,000 μM, preincubation 10 min 37 °C, read-out: IC50, amidolytic activity of human thrombin
[8] = ten times IC50: cyanidin […], quercetin 15 μM, silybin 250 μM

SMILES: Oc1cc(O)c2cc(O)c(-c3ccc(O)c(O)c3)[o+]c2c1 [Cyanidin, cyanidin]
Platelet aggregation, % of control ([1]; compound 5 μM preincubated with thrombin): 10%
Effect on thrombin ability to induce fibrinogen polymerization [2]: inhibition of thrombin ability to induce fibrinogen polymerization
Concentration causing total inhibition of thrombin activity (fibrin polymerization) [2]: 5 µM
Response (RU) [3]: 2,251 RU
k cat [4]: 28.7 s⁻¹
Type of inhibition [4]: competitive inhibitors
V max of chromogenic substrate hydrolysis by thrombin [4]: 30.3 10^−6 mol/min
K m of chromogenic substrate hydrolysis by thrombin [4]: 600.6 10^−6 M
Effect on formation of γ–γ chains and α-polymers ([6]; at IC50 concentration of amidolytic inhibition: cyanidin […], quercetin 1.5 μM): also inhibited the formation of γ–γ chains and α-polymers
Effect on formation of γ–γ chains and α-polymers [6, 8]: significantly inhibited the formation of γ–γ chains and α-polymers

SMILES: O=C(O)c1cc(O)c(O)c(O)c1 [Gallic acid, gallic acid]
IC50 [5]: > 1000 µM

SMILES: O=c1c(-c2ccc(O)cc2)coc2cc(O)cc(O)c12 [Genistein, genistein]
IC50 [5]: > 1000 µM

SMILES: C[C@@H]1O[C@@H](O[C@H]2[C@H](Oc3cc(O)c4c(c3)O[C@H](c3ccc(O)cc3)CC4=O)O[C@H](CO)[C@@H](O)[C@@H]2O)[C@H](O)[C@H](O)[C@H]1O [Naringin, naringin]
IC50 [5, 7]: > 1000 µM

SMILES: Oc1cc(O)c2c(c1)O[C@H](c1ccc(O)c(O)c1)[C@H](O)[C@H]2c1c(O)cc(O)c2c1O[C@H](c1ccc(O)c(O)c1)[C@H](O)C2 [Procyanidin B2, procyanidin B2]
IC50 [5, 7]: > 1000 µM

SMILES: Oc1ccc(/C=C/c2cc(O)cc(O)c2)cc1 [Resveratrol, resveratrol]
IC50 [5, 7]: > 1000 µM

SMILES: C[C@@H]1O[C@@H](OC[C@H]2O[C@@H](Oc3c(-c4ccc(O)c(O)c4)oc4cc(O)cc(O)c4c3=O)[C@H](O)[C@@H](O)[C@@H]2O)[C@H](O)[C@H](O)[C@H]1O [Rutin, rutin]
IC50 [5, 7]: > 1000 µM

Continued, in another order:

Concentration causing total inhibition of thrombin activity (fibrin polymerization) [2]: > 1,000 μM
K A, equilibrium association constant ([3]; 5 sensorgrams, 50 to 1,000 μM): 53900 M⁻¹
Kd ([3]; 5 sensorgrams, 50 to 1,000 μM, read-out: K D, equilibrium dissociation constant): 18.6 µM
kon ([3]; 5 sensorgrams, 50 to 1,000 μM, read-out: k a, association rate): 7.11 M⁻¹ s⁻¹
koff ([3]; 5 sensorgrams, 50 to 1,000 μM, read-out: k d, dissociation rate): 0.000132 s⁻¹
Response (RU) [3]: 1,424 RU
k cat [4]: 25.6 s⁻¹
Type of inhibition [4]: competitive inhibitors
V max of chromogenic substrate hydrolysis by thrombin [4]: 27 10^−6 mol/min
K m of chromogenic substrate hydrolysis by thrombin [4]: 550.5 10^−6 M
IC50 [5, 7]: 25 µM
SMILES: COc1cc(C2Oc3cc([C@H]4Oc5cc(O)cc(O)c5C(=O)[C@@H]4O)ccc3OC2CO)ccc1O (stereo in doubt) [Silybin, silybin]
Platelet aggregation, % of control ([1]; compound 1,000 μM preincubated with thrombin): 43%
Effect on thrombin ability to induce fibrinogen polymerization [2]: inhibition of thrombin ability to induce fibrinogen polymerization
Effect on formation of γ–γ chains and α-polymers [6, 8]: slightly reduced the formation of γ–γ chains and α-polymers

IC50 [5, 7]: > 1000 µM
SMILES: O=C(O)Cc1ccc(O)cc1 [4-Hydroxyphenylacetic acid, 4-hydroxyphenylacetic acid]

IC50 [5, 7]: > 1000 µM
SMILES: O=C(O)/C=C/c1ccc(O)c(O)c1 [Caffeic acid, caffeic acid]

IC50 [5, 7]: > 1000 µM
SMILES: O=C(/C=C/c1ccc(O)c(O)c1)O[C@@H]1C[C@](O)(C(=O)O)C[C@@H](O)[C@H]1O [Chlorogenic acid, chlorogenic acid]

IC50 [5, 7]: > 1000 µM
SMILES: O=C(O)/C=C/c1ccc(O)cc1 [Coumaric acid, coumaric acid]

IC50 [5, 7]: > 1000 µM
SMILES: COc1cc(/C=C/C(=O)O)ccc1O [Ferulic acid, ferulic acid]

IC50 [5, 7]: > 1000 µM
SMILES: COc1ccc([C@@H]2CC(=O)c3c(O)cc(O)cc3O2)cc1O [Hesperetin, hesperetin]

IC50 [5, 7]: > 1000 µM
SMILES: COc1ccc([C@@H]2CC(=O)c3c(O)cc(O[C@@H]4O[C@H](CO[C@@H]5O[C@@H](C)[C@H](O)[C@@H](O)[C@H]5O)[C@@H](O)[C@H](O)[C@H]4O)cc3O2)cc1O [Hesperidin, hesperidin]

IC50 [5, 7]: > 1000 µM
SMILES: O=C1C[C@@H](c2ccc(O)cc2)Oc2cc(O)cc(O)c21 [Naringenin, naringenin]
